In patent publication US10669272B2, “Substituted naphthyridinone compounds useful as T cell activators” (BRISTOL-MYERS SQUIBB COMPANY, priority 2018, dated 2020):
Where two headings read alike, the source gives them in different places.

What was measured:
naïve human CD8 T cells = test: Human CD8 T cells IFN-γ assay; format: cell-based; conditions: read-out: HuCD8 INFG Normalized EC50;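 further: Naïve human CD8 T cells stimulated with plate-bound anti-CD3 and soluble anti-CD28, IFN-γ in supernatant quantified by AlphaLISA and converted to pg/mL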
human DGKζ = target: T1, human DGKζ (Homo sapiens, UniProt Q13574); test: DGKζ LIPGLO assay (extruded liposome substrate), in vitro DGK inhibition; format: biochemical; conditions: read-out: DGKz LIPGLO IC50
T1 construct: TVMV protease cleavage site (C); Hexa-His (C); made in house; host or cells: Sf9 insect cells (baculovirus, Bac-to-Bac)
T1 sequence (Q13574 with tags, fused parts or gaps isoform Q13574-4): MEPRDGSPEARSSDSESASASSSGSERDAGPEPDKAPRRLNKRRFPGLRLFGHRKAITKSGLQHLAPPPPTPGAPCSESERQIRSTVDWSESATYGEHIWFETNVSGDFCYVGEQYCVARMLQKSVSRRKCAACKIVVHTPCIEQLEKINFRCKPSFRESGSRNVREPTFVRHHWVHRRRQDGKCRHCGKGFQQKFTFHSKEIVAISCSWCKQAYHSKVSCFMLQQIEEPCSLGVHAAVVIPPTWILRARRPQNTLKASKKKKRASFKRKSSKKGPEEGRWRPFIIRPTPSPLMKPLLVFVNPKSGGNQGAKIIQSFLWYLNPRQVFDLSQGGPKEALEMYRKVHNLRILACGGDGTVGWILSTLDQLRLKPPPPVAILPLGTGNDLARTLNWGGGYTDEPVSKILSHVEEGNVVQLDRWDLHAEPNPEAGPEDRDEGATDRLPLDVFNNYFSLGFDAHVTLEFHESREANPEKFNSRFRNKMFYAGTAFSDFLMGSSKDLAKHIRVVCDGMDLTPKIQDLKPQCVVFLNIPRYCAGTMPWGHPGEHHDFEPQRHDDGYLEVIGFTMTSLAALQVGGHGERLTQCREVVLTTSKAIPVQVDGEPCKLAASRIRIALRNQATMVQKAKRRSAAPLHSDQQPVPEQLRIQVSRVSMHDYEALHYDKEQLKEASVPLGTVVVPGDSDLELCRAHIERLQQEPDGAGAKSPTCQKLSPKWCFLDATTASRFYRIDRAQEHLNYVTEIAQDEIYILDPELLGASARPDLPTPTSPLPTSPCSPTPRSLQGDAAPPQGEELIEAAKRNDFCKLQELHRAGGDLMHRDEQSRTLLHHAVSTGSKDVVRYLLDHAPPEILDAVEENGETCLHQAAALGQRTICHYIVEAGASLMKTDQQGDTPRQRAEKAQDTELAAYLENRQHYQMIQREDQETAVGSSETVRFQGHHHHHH

human DGKα = target: T2, human DGKα (Homo sapiens, UniProt P23743); test: DGKα LIPGLO assay (extruded liposome substrate), in vitro DGK inhibition; format: biochemical; conditions: read-out: DGKa LIPGLO IC50
T2 construct: TVMV protease cleavage site (C); Hexa-His (C); made in house; host or cells: Sf9 insect cells (baculovirus, Bac-to-Bac)
T2 sequence (P23743 with tags, fused parts or gaps): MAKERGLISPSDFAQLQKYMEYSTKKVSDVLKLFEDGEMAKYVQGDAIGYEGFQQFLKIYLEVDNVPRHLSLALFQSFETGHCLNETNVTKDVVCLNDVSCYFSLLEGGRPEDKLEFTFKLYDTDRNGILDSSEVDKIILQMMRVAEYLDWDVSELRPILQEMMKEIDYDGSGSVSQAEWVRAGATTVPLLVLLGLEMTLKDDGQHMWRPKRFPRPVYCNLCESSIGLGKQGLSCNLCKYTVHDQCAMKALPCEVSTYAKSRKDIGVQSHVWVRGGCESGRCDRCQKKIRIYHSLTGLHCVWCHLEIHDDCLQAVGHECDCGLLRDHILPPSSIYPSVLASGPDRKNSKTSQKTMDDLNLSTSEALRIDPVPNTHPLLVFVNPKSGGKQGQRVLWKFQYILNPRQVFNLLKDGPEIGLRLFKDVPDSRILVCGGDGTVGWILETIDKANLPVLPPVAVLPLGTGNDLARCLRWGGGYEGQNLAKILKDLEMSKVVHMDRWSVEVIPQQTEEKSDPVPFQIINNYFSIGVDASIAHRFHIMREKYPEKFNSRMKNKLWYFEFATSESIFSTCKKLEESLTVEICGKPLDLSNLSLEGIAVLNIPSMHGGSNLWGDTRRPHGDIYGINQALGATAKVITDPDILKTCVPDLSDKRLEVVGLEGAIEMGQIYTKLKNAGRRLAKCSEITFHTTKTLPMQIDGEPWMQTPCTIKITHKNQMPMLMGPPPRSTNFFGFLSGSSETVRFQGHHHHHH

Human venous whole blood = test: Human whole blood IFN-γ assay; format: cell-based; conditions: human whole blood, read-out: INFg Whole Blood Normalized Agonist EC50;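 further: blood from healthy donors exposed to compound for 1 h before stimulation with anti-CD3 and anti-CD28 at 1 µg/mL each, IFN-γ quantified in supernatant by AlphaLISA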
Description: Human Whole Blood IFN-γ Assay
Human venous whole blood (22.5 μL per well), obtained from healthy donors, was pre-treated with compounds for one hour at 37° C. in a humidified 95% air/5% CO2 incubator. The blood was stimulated with 2.5 μL anti-human CD3 and anti-CD28 mAb at a final concentration of 1 μg/mL each for 24 hours at 37° C. IFN-γ in the supernatants was measured using AlphLISA kit (Cat # AL217).

[1] = normalized to 3 μM reference compound with anti-CD3 plus anti-CD28 as 100% activation
[2] = Homo sapiens, 24 h, normalized to 3 μM reference compound with anti-CD3 plus anti-CD28 as 100% activation
[3] = Homo sapiens, T-cell, 20 h, normalized to 3 μM reference compound with anti-CD3 plus anti-CD28 as 100% activation
[4] = Homo sapiens, 24 h, anti-CD3 plus anti-CD28, 24 hours, 3 μM reference compound = 100% activation
[5] = Homo sapiens, T-cell, 20 h, naïve human CD8 T cells, anti-CD3 plus anti-CD28, 3 μM reference compound = 100% activation

Row | Compound | EC50 (naïve human CD8 T cells; [1]) | IC50 (human DGKζ; liposome (LIPGLO) assay) | IC50 (human DGKα; liposome (LIPGLO) assay) | EC50 (Human venous whole blood; [2]) | EC50 (naïve human CD8 T cells; [3]) | EC50 (Human venous whole blood; [1]) | also measured
1 | C[C@@H]1CN(c2cc(=O)n(C)c3ccc(C#N)nc23)[C@@H](C)CN1C(c1ccc(F)cc1)c1c(F)cccc1F (single isomer, unassigned) [Example 274] | 0.042 µM | 2.5 µM | 5.7 µM | 3.6 µM |  |  | 
2 | C[C@@H]1CN(c2cc(=O)n(C)c3ccc(C#N)nc23)[C@@H](C)CN1C(c1ccc(OC(F)(F)F)cc1)c1cccc(F)n1 (single isomer, unassigned) [Example 367] |  | 2.7 µM | 1.3 µM | 0.46 µM | 0.013 µM |  | 
3 | Cc1ccc(C(c2ccc(C)c(Cl)c2)N2C[C@H](C)N(c3cc(=O)n(C)c4ccc(C#N)nc34)C[C@H]2C)nc1 (single isomer, unassigned) [Example 373] |  | 0.74 µM | 6.5 µM | 0.32 µM | 0.18 µM |  | 
4 | CCc1cc(F)ccc1C(c1ccc(Cl)cc1)N1C[C@H](C)N(c2cc(=O)n(C)c3ccc(OC)nc23)C[C@H]1C (single isomer, unassigned) [Example 231] | 1.1 µM | 3.7 µM | 240 µM | 20 µM |  |  | 
5 | C[C@@H]1CN(c2cc(=O)n(C)c3ccc(C#N)nc23)[C@@H](C)CN1C(c1ccc(F)cc1)c1nc(-c2ccc(F)cc2)no1 (single isomer, unassigned) [Example 741] |  |  |  |  |  |  | EC50 (naïve human CD8 T cells; naïve human CD8 T cells, anti-CD3 plus anti-CD28, 3 μM reference compound = 100% activation): 0.0037 µM; IC50 (human DGKζ; DGKζ liposome (LIPGLO) assay): 1.4 µM; IC50 (human DGKα; DGKα liposome (LIPGLO) assay): 0.87 µM; EC50 (Human venous whole blood; [4]): 0.21 µM
6 | C[C@@H]1CN(c2cc(=O)n(C)c3ccc(C#N)nc23)[C@@H](C)CN1Cc1ccc(OC(F)(F)F)cc1F [Example 243, 8-[(2S,5R)-4-{[2-fluoro-4-(trifluoromethoxy)phenyl]methyl}-2,5-dimethylpiperazin-1-yl]-5-methyl-6-oxo-5,6-dihydro-1,5-naphthyridine-2-carbonitrile] |  | 1.9 µM | 0.29 µM | 1.5 µM | 0.16 µM |  | 
7 | C[C@@H]1CN(c2cc(=O)n(C)c3ccc(C#N)nc23)[C@@H](C)CN1C(c1ccccc1)c1cccc(F)c1 (stereo partly drawn) [Example 296, 8-[(2S,5R)-4-[(3-fluorophenyl)(phenyl)methyl]-2,5-dimethylpiperazin-1-yl]-5-methyl-6-oxo-5,6-dihydro-1,5-naphthyridine-2-carbonitrile] |  | 0.9 µM | 0.63 µM | 1.2 µM | 0.4 µM |  | 
8 | CCc1cc(F)ccc1C(c1ccc(F)cc1)N1C[C@H](C)N(c2cc(=O)n(C)c3ccc(OC)nc23)C[C@H]1C (single isomer, unassigned) [Example 233] | 10 µM | 3.6 µM | 27 µM | 20 µM |  |  | 
9 | C[C@@H]1CN(c2cc(=O)n(C)c3ccc(C#N)nc23)[C@@H](C)CN1Cc1ccc(C#N)cc1F [Example 253, 8-[(2S,5R)-4-[(4-cyano-2-fluorophenyl)methyl]-2,5-dimethylpiperazin-1-yl]-5-methyl-6-oxo-5,6-dihydro-1,5-naphthyridine-2-carbonitrile] |  | 0.69 µM | 0.2 µM | 3 µM | 0.087 µM |  | 
10 | C[C@@H]1CN(c2cc(=O)n(C)c3ccc(C#N)nc23)[C@@H](C)CN1C(c1ccc(F)c(F)c1)c1ccccn1 (single isomer, unassigned) [Example 376] | 0.028 µM | 1.1 µM | 2.9 µM |  |  | 0.38 µM | 
11 | CCOc1ncccc1C(c1ccc(F)cc1)N1C[C@H](C)N(c2cc(=O)n(C)c3ccc(C#N)nc23)C[C@H]1C (single isomer, unassigned) [Example 206] | 0.039 µM | 0.44 µM | 24 µM |  |  | 1.4 µM | 
12 | C[C@@H]1CN(c2cc(=O)n(C)c3ccc(C#N)nc23)[C@@H](C)CN1C(c1ccc(F)cn1)c1ccc(F)cc1F (single isomer, unassigned) [Example 685] |  | 1 µM | 0.3 µM |  | 0.012 µM | 0.1 µM | 
13 | Cc1ccc(C(c2ccc(Cl)cc2)N2C[C@H](C)N(c3cc(=O)n(C)c4ccc(C#N)nc34)C[C@H]2C)nc1 (single isomer, unassigned) [Example 213] | 1.1 µM | 0.79 µM | 0.36 µM | 0.46 µM |  |  | 
14 | C[C@@H]1CN(c2cc(=O)n(C)c3ccc(C#N)nc23)[C@@H](C)CN1C(c1ccc(F)cc1)c1nc(C(C)(C)C)no1 (some centres unmarked) [Example 737] |  |  |  |  |  |  | EC50 (naïve human CD8 T cells; [5]): 0.00031 µM; IC50 (human DGKζ; DGKζ liposome (LIPGLO) assay): 0.13 µM; IC50 (human DGKα; DGKα liposome (LIPGLO) assay): 1.1 µM; EC50 (Human venous whole blood; [4]): 0.043 µM
15 | C[C@@H]1CN(c2cc(=O)n(C)c3ccc(C#N)nc23)[C@@H](C)CN1Cc1cccc(F)c1 [Example 292, 8-[(2S,5R)-4-[(3-fluorophenyl)methyl]-2,5-dimethylpiperazin-1-yl]-5-methyl-6-oxo-5,6-dihydro-1,5-naphthyridine-2-carbonitrile] |  | 3 µM | 0.28 µM | 2.2 µM | 1.7 µM |  | 
16 | C[C@@H]1CN(c2cc(=O)n(C)c3ccc(C#N)nc23)[C@@H](C)CN1C(c1ccccc1)c1ccc(F)cc1 (mixture of isomers) [Example 182, 8-[(2S,5R)-4-[(4-fluorophenyl)(phenyl)methyl]-2,5-dimethylpiperazin-1-yl]-5-methyl-6-oxo-5,6-dihydro-1,5-naphthyridine-2-carbonitrile] |  | 1.6 µM | 0.87 µM |  | 0.03 µM |  | EC50 (Human venous whole blood; Homo sapiens, normalized to 3 μM reference compound with anti-CD3 plus anti-CD28 as 100% activation): 0.68 µM
17 | CC[C@@H]1CN(c2cc(=O)n(C)c3ccc(C#N)nc23)[C@@H](C)CN1C(c1ccc(Cl)cc1)c1ccc(Cl)cc1 [Example 1099] |  | 1.5 µM | 1.7 µM | 0.22 µM | 0.0025 µM |  | 
18 | Cc1cccc(C(c2ccc(F)cc2)N2CCN(c3c(C#N)c(=O)n(C)c4ccc(C#N)nc34)C[C@H]2C)n1 (single isomer, unassigned) [Example 906] |  |  |  |  |  |  | EC50 (naïve human CD8 T cells; [5]): 0.067 µM; IC50 (human DGKζ; DGKζ liposome (LIPGLO) assay): 0.94 µM; IC50 (human DGKα; DGKα liposome (LIPGLO) assay): 1 µM; EC50 (Human venous whole blood; anti-CD3 plus anti-CD28, 24 hours, 3 μM reference compound = 100% activation): 0.81 µM
19 | C[C@@H]1CN(c2cc(=O)n(C)c3ccc(C#N)nc23)[C@@H](C)CN1C(c1ccc(F)cc1)c1cnsc1 (single isomer, unassigned) [Example 715] |  | 3.9 µM | 0.36 µM |  | 0.042 µM | 0.68 µM | 
20 | Cc1ccc(C(c2cncc(F)c2)N2C[C@H](C)N(c3cc(=O)n(C)c4ccc(C#N)nc34)C[C@H]2C)cc1 (single isomer, unassigned) [Example 391] |  | 2.4 µM | 3.1 µM |  | 0.081 µM | 0.89 µM | 
21 | Cc1cccc(C(c2ccc(F)cc2)N2C[C@H](C)N(c3cc(=O)n(C)c4ccc(C#N)nc34)C[C@H]2C)c1 (single isomer, unassigned) [Example 224] | 0.024 µM | 0.057 µM | 1.5 µM |  |  | 1 µM | 
22 | C[C@@H]1CN(c2cc(=O)n(C)c3ccc(C#N)nc23)[C@@H](C)CN1C(c1ccc(F)cc1)c1cccc(F)c1 (mixture of isomers) [Example 248, 8-[(2S,5R)-4-[(3-fluorophenyl)(4-fluorophenyl)methyl]-2,5-dimethylpiperazin-1-yl]-5-methyl-6-oxo-5,6-dihydro-1,5-naphthyridine-2-carbonitrile] |  | 0.79 µM | 1.3 µM | 0.71 µM | 0.053 µM |  | 
23 | Cc1ccc(C(c2ccc(C#N)cc2)N2C[C@H](C)N(c3cc(=O)n(C)c4ccc(C#N)nc34)C[C@H]2C)nc1 (single isomer, unassigned) [Example 360] |  | 2.5 µM | 0.57 µM |  | 0.13 µM | 0.31 µM | 
